Experimental data reported in ChEMBL document CHEMBL1201862, “PubChem BioAssay data set” (2004).
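Cells were grown in 96-well plates and exposed to each compound for 48 hours at five concentrations; endpoints were interpolated linearly between bracketing concentrations, or set to the highest concentration if not reached. Here, GI50 denotes the concentration required for 50% inhibition of growth.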 Calls of active or inactive are those of the source. No stated cut-off is given here; in the data, active = GI50 up to about 1.1 µM and inactive = higher.

What was measured:
Assay in all cases: NCI-60 cell line screen, 48 h
[1] = test system: 786-0
[2] = test system: A549
[3] = test system: CAKI-1
[4] = test system: DMS-114
[5] = test system: HCC 2998
[6] = test system: HCT-15
[7] = test system: HL-60
[8] = test system: IGROV-1
[9] = test system: KM12
[10] = test system: LOX IMVI
[11] = test system: NCI-H23
[12] = test system: OVCAR-4
[13] = test system: OVCAR-5
[14] = test system: SF-268
[15] = test system: SF-295
[16] = test system: SK-MEL-28
[17] = test system: SNB-19
[18] = test system: SW-620
[19] = test system: UO-31
[20] = test system: MDA-MB-231

SMILES | GI50 [1] | GI50 [2] | GI50 [3] | GI50 [4] | GI50 [5] | GI50 [6] [µM] | GI50 [7] | GI50 [8] | GI50 [9] | GI50 [10] | GI50 [11] | GI50 [12] | GI50 [13] | GI50 [14] | GI50 [15] | GI50 [16] | GI50 [17] | GI50 [18] | GI50 [19] | GI50 [20]
O=[N+]([O-])c1ccc(C2CC(c3ccc(NCc4nc5ccccc5[nH]4)cc3)=NO2)cc1 (stereo not drawn) | 39.6 µM (inactive) | 98.2 µM (inactive) | > 100 µM (inactive) | 11.4 µM (inactive) | 85.5 µM (inactive) | 30.7 | 20.4 µM (inactive) | 75.7 µM (inactive) | 21.1 µM (inactive) | 35.5 µM (inactive) | 34.6 µM (inactive) | 14.3 µM (inactive) | > 100 µM (inactive) | > 100 µM (inactive) | 21.8 µM (inactive) | > 100 µM (inactive) | 37.3 µM (inactive) | 33.5 µM (inactive) | > 100 µM (inactive) | 
C/C(=N\NS(=O)(=O)c1ccc([N+](=O)[O-])cc1)c1ccc[n+]([O-])n1 | 2.36 µM (inactive) | 2.19 µM (inactive) | 2.32 µM (inactive) | 1.77 µM (inactive) | 9.46 µM (inactive) | 5.16 | 1.81 µM (inactive) | 3.79 µM (inactive) | 2.39 µM (inactive) | 0.912 µM (active) | 1.7 µM (inactive) | 1.35 µM (inactive) | 2.63 µM (inactive) | 2.33 µM (inactive) | 1.9 µM (inactive) | 3.21 µM (inactive) | 3.24 µM (inactive) | 2.29 µM (inactive) | 2.64 µM (inactive) | 
CN(C)C(=O)OC(Cn1cncn1)c1ccc(Cl)cc1Cl (stereo not drawn) | > 100 µM (inactive) | > 100 µM (inactive) | > 100 µM (inactive) | > 100 µM (inactive) | > 100 µM (inactive) | > 100 | > 100 µM (inactive) | > 100 µM (inactive) | > 100 µM (inactive) | > 100 µM (inactive) | > 100 µM (inactive) | > 100 µM (inactive) | > 100 µM (inactive) | > 100 µM (inactive) | > 100 µM (inactive) | > 100 µM (inactive) | > 100 µM (inactive) | > 100 µM (inactive) | > 100 µM (inactive) | 
NC1N=Nc2ccccc21 (stereo not drawn) | > 100 µM (inactive) | > 100 µM (inactive) | > 100 µM (inactive) | > 100 µM (inactive) | > 100 µM (inactive) | > 100 | > 100 µM (inactive) | > 100 µM (inactive) | > 100 µM (inactive) | > 100 µM (inactive) | > 100 µM (inactive) | > 100 µM (inactive) | > 100 µM (inactive) | > 100 µM (inactive) | > 100 µM (inactive) | > 100 µM (inactive) | > 100 µM (inactive) | > 100 µM (inactive) | > 100 µM (inactive) | 
COc1ccc(Br)c2c1CC(C(=O)O)CC2 (stereo not drawn) | > 100 µM (inactive) | > 100 µM (inactive) | > 100 µM (inactive) | > 100 µM (inactive) | > 100 µM (inactive) | > 100 | > 100 µM (inactive) | > 100 µM (inactive) | > 100 µM (inactive) | > 100 µM (inactive) | > 100 µM (inactive) | > 100 µM (inactive) | > 100 µM (inactive) | > 100 µM (inactive) | > 100 µM (inactive) | > 100 µM (inactive) | > 100 µM (inactive) | > 100 µM (inactive) | > 100 µM (inactive) | > 100 µM (inactive)
COc1cccc(C2=NC(C(C)C)CO2)c1 (stereo not drawn) | > 100 µM (inactive) | > 100 µM (inactive) | > 100 µM (inactive) | > 100 µM (inactive) | > 100 µM (inactive) | > 100 | > 100 µM (inactive) | > 100 µM (inactive) | > 100 µM (inactive) | > 100 µM (inactive) | > 100 µM (inactive) | > 100 µM (inactive) | > 100 µM (inactive) | > 100 µM (inactive) | > 100 µM (inactive) | > 100 µM (inactive) | > 100 µM (inactive) | > 100 µM (inactive) | 85.7 µM (inactive) | 
CCOC(=O)/N=C(\N)SCc1ccccc1 | > 100 µM (inactive) | > 100 µM (inactive) | > 100 µM (inactive) | > 100 µM (inactive) | > 100 µM (inactive) | > 100 | 50.9 µM (inactive) | > 100 µM (inactive) | > 100 µM (inactive) | 43.9 µM (inactive) | > 100 µM (inactive) | > 100 µM (inactive) | > 100 µM (inactive) | > 100 µM (inactive) | > 100 µM (inactive) | > 100 µM (inactive) | > 100 µM (inactive) | > 100 µM (inactive) | > 100 µM (inactive) | 
Cc1cc(C)nc(Nc2nc3cc([N+](=O)[O-])ccc3[nH]2)n1 | > 100 µM (inactive) | > 100 µM (inactive) | > 100 µM (inactive) | > 100 µM (inactive) | > 100 µM (inactive) | > 100 | > 100 µM (inactive) | > 100 µM (inactive) | > 100 µM (inactive) | > 100 µM (inactive) | > 100 µM (inactive) | > 100 µM (inactive) | > 100 µM (inactive) | > 100 µM (inactive) | > 100 µM (inactive) | > 100 µM (inactive) | > 100 µM (inactive) | > 100 µM (inactive) | > 100 µM (inactive) | 
C[Si](C)(C)c1ccc(CC2(Cc3ccc([Si](C)(C)C)cc3)CCNC2)cc1 | 1.77 µM (inactive) | 2.29 µM (inactive) | 2.39 µM (inactive) | 2.13 µM (inactive) | 2.11 µM (inactive) | 2.16 | 7.18 µM (inactive) | 2.58 µM (inactive) | 1.99 µM (inactive) | 1.8 µM (inactive) | 1.97 µM (inactive) | 2.1 µM (inactive) | 4.67 µM (inactive) | 2.22 µM (inactive) | 2.52 µM (inactive) | 2.33 µM (inactive) | 4 µM (inactive) | 1.86 µM (inactive) | 2.48 µM (inactive) | 
COC1/C=C/O[C@@]2(C)Oc3c(C)c(O)c4c(O)c(cc(O)c4c3C2=O)NC(=O)/C(C)=C\C=C\[C@H](C)C(O)[C@@H](C)[C@@H](O)[C@@H](C)[C@H](OC(C)=O)[C@@H]1C (stereo partly drawn) | 15.2 µM (inactive) |  | 37.9 µM (inactive) | 7.91 µM (inactive) | 18.8 µM (inactive) | 18.6 |  | 22.7 µM (inactive) | 27.2 µM (inactive) | 14 µM (inactive) | 13.5 µM (inactive) | 13.1 µM (inactive) | 38.5 µM (inactive) | 24.5 µM (inactive) | 94.8 µM (inactive) | 22.5 µM (inactive) | 82.2 µM (inactive) |  | 51.3 µM (inactive) | 23.3 µM (inactive)
CCCC1(CC(=O)O)OCCc2c1[nH]c1ccccc21 (stereo not drawn) [PRODOLIC ACID] | > 100 µM (inactive) | > 100 µM (inactive) | > 100 µM (inactive) | > 100 µM (inactive) | > 100 µM (inactive) | > 100 | > 100 µM (inactive) | > 100 µM (inactive) | > 100 µM (inactive) | > 100 µM (inactive) | > 100 µM (inactive) | > 100 µM (inactive) | > 100 µM (inactive) | > 100 µM (inactive) | > 100 µM (inactive) | > 100 µM (inactive) | > 100 µM (inactive) | > 100 µM (inactive) | > 100 µM (inactive) | 
